Non-standard residues stand in square brackets, D forms with d. Residues, ends and D or L forms follow the SMILES beside them. αMeP = C[C@@]1(C(=O)O)CCCN1
What was measured:
[1] = Pharmacokinetics after intravenous bolus injection; type: in vivo, rat
Method: Adult male Wistar rats weighing between 180 and 240 g were used to determine the pharmacokinetics of GPE and […]. To facilitate intravenous bolus injections and blood sampling, all rats were surgically implanted with an indwelling jugular venous cannula under halothane anesthesia three days before the experiment. Groups of six rats were given a single intravenous bolus injection of either 30 mg/kg GPE or 10 mg/kg […] dissolved in 0.1M succinate buffer (pH 6.5). […] The samples were centrifuged at 3000 g for 15 min at 4° C. and the plasma removed and stored at -80° C. until extraction and assay by either radioimmunoassay (“RIA”) or reverse phase HPLC. The RIA and HPLC methods used were conventional. […] The k and half-life (t1/2) were calculated from the slope of the linear regression line in the elimination phase of the semi-logarithmic plot of plasma concentration versus time as: Log. C=-kt/2.3+log C0. Results were expressed as mean±standard error.

[2] = system: layer 5 pyramidal neurons in motor cortex of P28 knockout mice; experiment: Golgi staining, cortical spine density; type: in vivo, mouse; conditions: knockout with treatment
Method: Samples (<1 cm) from P28 mice are fixed in 10% formalin and 3% potassium bichromate for 24 hours. Tissue is then transferred into 2% silver nitrate for 2 days in the dark at room temperature. Sections from these samples are then cut at 50 μm thickness into distilled water. Sections corresponding to motor cortex are mounted onto slides, air dried for 10 minutes, and then dehydrated through sequential rinses of 95% alcohol, 100% alcohol, and xylene, and then sealed with a coverslip. Images re acquired at 10× (whole cell) and 100× (spine imaging) using a Zeiss Pascal 5 Exciter confocal microscope.
We use Golgi staining to label neurons sparsely and distinctly, and applied high-resolution confocal imaging to measure dendritic spine density and morphology in the labelled cells, restricting analysis to layer 5 pyramidal neurons in sections of motor cortex from critical period mice (P28).
While low-magnification imaging clearly delineates the extent of the dendrites of the pyramidal cells we use higher magnifications to count synaptic contacts and determine the morphological class of each spine. We classify spines as either large and bulbous (“mushroom”, M), short and stubby (“stubby”, S), short and thin (“thin”, T) or filopodia (F).

[3] = system: MeCP2-/y mice; experiment: Heart rate measurements; type: in vivo, mouse; conditions: 8 weeks old, treated from P15
Method: Real time cardiac pulse rate is measured using a tail clip sensor (Mouse OX Oximeter—Oakmont, Pa.). Mice are not anesthetized but physically restrained in a fitted open plastic tube. Prior to the recording session the tube is placed overnight in the cages housing the experimental animals to allow habituation. Body temperature is maintained at ˜82-84° F. throughout the recording time. We record 3 trials of 15 minutes for each mouse, mice are 8 weeks old and treated with vehicle or G-2-MePE from P15.
To examine heart rate abnormalities in MeCP2−/y mice and the effect of G-2-MePE treatment, we monitor real time cardiac pulse rate in non-anesthetized wild type and MeCP2−/y animals treated with vehicle or G-2-MePE.

C[C@@]1(C(=O)N[C@@H](CCC(=O)O)C(=O)O)CCCN1C(=O)CN [Example G-2-MePE, Glycyl-L-2-methylprolyl-L-glutamic acid] (H-Gly-[αMeP]-Glu-OH)
first order rate constant ([1]; 10 mg/kg single i.v. bolus, rat): 0.033 ± 0.001 min⁻¹ | maximal plasma concentration relative to GPE ([1]; G-2-MePE 10 mg/kg vs GPE 30 mg/kg i.v.): about 4.8 times | t1/2 relative to GPE ([1]; i.v., rat): over 4 times | density of spines per unit branch [2]: largely ameliorated | occurrence of irregular heart rate with a lower average rate [3]: significantly reduced
